Results as given in patent publication US20210238170A1, “5,5-Difluoro- and 5-Fluoro-5-Methyl-C-Glycoside Derivatives Useful As Dual SGLT1 / SGLT2 Modulators” (Janssen Pharmaceutica NV, priority 2018, published 2021).
Like-named read-outs stand apart in the source and are kept apart here.

Assays:
human SGLT1 = biological target: T1, human SGLT1 (Homo sapiens, UniProt P13866); test: SGLT1 in vitro assay: Na-dependent 14C-AMG uptake in CHO-K1 cells stably expressing human SGLT1; format: cell-based; settings: for inhibition at 0.3 µM: read-out: SGLT1 % Inh @ 0.3 μM
T1 construct: expressed in transfected cells
T1 sequence (P13866 1-664): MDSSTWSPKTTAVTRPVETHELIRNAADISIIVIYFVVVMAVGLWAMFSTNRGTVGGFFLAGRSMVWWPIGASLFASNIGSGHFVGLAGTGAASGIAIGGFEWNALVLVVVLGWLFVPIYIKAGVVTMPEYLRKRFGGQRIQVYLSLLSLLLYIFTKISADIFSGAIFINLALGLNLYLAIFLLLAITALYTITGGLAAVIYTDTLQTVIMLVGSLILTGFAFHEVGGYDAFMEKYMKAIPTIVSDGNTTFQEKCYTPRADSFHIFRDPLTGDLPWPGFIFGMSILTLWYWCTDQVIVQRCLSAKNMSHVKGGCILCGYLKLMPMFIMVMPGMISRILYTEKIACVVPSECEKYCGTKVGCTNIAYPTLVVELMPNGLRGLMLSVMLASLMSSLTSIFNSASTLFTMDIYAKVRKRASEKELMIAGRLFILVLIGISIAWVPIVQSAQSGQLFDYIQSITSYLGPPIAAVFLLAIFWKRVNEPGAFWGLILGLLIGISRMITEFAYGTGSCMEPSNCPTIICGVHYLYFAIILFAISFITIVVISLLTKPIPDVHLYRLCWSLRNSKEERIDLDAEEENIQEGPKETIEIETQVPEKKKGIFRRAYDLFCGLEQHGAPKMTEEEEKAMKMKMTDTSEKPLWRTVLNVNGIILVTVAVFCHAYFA
Protocol: (§1) Biological Example 1: SGLT1 and SGLT2 In Vitro Assays
(§2) The ability of the compounds of formula (I) of the present invention to treat an SGLT-mediated condition was determined using the following procedures:
(§3) SGLT1 and SGLT2 were cloned in form of cDNA from human small intestine (Genbank M24847), and from human kidney (Genbank M95549), respectively. Subsequently, each full cDNA was subcloned into pcDNA with each construct's integrity verified through follow-on sequencing. To generate CHO-K1 cells that stably express human SGLT1 or human SGLT2, CHO-K1 cells were transfected using DMRIE-C reagent (Life Technologies, Gaithersburg, Md.). Transfected cells were then selected in the presence of 500 μg/ml of the Geneticin (G418 Cellgro Catalog No. 30234-CI)
(§4) Individual clones were then characterized using the following cell-based assay for sodium-dependent glucose transport:
(§5) Inhibition of SGLT1 and SGLT2 activity was assessed in CHO K1 cells stably expressing either human SGLT1 or SGLT2, using the SGLT specific glucose analog methyl-glucopyranoside (Sigma Catalog No. M-9376). Cells were plated (45,000 cells/well) in white wall 96-well plates (COSTAR, Cat #3903) for 24 hours in growth medium, then a final concentration of 10 mM Na-Butyrate (ALDRICH Cat #30341-0) was added. The cells were incubated for 24 hours. On the day of the assay, cells were rinsed and treated with test compounds (at concentrations of 0.001 μM to 10 μM) in assay buffer (50 mM HEPES, 20 mM Tris base, 5 mM KCl, 1 mM MgCl2, 1 mM CaCl2 and 137 mM NaCl, pH 7.4) for 10 minutes. Cells were then incubated with ^14C-a-methyl-d-glucopyranoside (AMG, Amersham Catalog No. CFB 76), using 0.07 μCi per well in 500 µM AMG final concentration. The cells were incubated for 2 hours at 37° C. with 5% CO2 and washed two times with ice-cold Phosphate Buffer Solution (CELLGRO Catalog No. 21030-CV). The cells were then solubilized by adding 60 μl of MICROSCINT™ 20 and the Na-dependent ^14C-AMG uptake was quantified by measuring radioactivity. Plates were counted in a TopCount (Packard, Meriden, Conn.)
(§6) Representative compounds of the present invention were tested according to the procedures as described in Biological Example 1 and 2 above, with results as listed in Table 5, below. Results are reported as the %-inhibition or IC50 value. Variability for the functional assay was typically within 20%.

human SGLT2 = biological target: T2, human SGLT2 (Homo sapiens, UniProt P31639); test: SGLT2 in vitro assay: Na-dependent 14C-AMG uptake in CHO-K1 cells stably expressing human SGLT2; format: cell-based; settings: for inhibition at 0.3 µM: read-out: SGLT2 % Inh @ 0.3 μM
T2 construct: expressed in transfected cells
T2 sequence (P31639 1-672): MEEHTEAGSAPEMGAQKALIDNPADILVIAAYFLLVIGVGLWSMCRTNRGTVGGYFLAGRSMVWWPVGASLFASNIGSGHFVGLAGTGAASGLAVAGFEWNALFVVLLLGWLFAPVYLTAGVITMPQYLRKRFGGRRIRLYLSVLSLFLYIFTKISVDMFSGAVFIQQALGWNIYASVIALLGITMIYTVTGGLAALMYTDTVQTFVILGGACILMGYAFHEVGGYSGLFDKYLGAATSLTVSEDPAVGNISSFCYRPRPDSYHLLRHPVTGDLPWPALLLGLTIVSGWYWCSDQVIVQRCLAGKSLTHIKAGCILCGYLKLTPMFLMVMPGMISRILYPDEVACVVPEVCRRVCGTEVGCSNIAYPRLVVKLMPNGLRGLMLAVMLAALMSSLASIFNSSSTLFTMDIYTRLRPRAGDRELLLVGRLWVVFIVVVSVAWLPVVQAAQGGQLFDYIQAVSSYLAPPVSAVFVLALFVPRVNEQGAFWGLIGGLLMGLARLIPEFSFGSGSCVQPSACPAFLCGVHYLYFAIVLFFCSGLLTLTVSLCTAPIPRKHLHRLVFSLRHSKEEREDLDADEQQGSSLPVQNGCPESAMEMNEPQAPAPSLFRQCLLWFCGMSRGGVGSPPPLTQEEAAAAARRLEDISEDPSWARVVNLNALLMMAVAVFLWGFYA
Protocol: as §1, §2, §3, §4, §5, §6

[1] = @ 0.3 μM, CHO-K1 cells stably expressing human SGLT1, 14C-AMG uptake
[2] = @ 0.3 μM, CHO-K1 cells stably expressing human SGLT2, 14C-AMG uptake
[3] = CHO-K1 cells stably expressing human SGLT1, 14C-AMG uptake, compounds of formula (I) where R0 is fluoro
[4] = CHO-K1 cells stably expressing human SGLT2, 14C-AMG uptake, compounds of formula (I) where R0 is fluoro
[5] = 0.3 μM, CHO-K1 cells expressing human SGLT1

| Structure (SMILES) | SGLT1 % Inh @ 0.3 μM (human SGLT1; [1]) [%] | SGLT2 % Inh @ 0.3 μM (human SGLT2; [2]) [%] | IC50 (human SGLT1; [3]) [nM] | IC50 (human SGLT2; [4]) [nM] | other results |
| --- | --- | --- | --- | --- | --- |
| OC[C@H]1O[C@@H](c2cc(Cc3ccc4c(c3)CCCO4)c(Cl)c3c2OCC3)[C@H](O)[C@@H](O)C1(F)F [Compound 126] | 28.7 | 87.1 |  |  |  |
| Cc1ccc(Cc2cc([C@@H]3O[C@H](CO)C(F)(F)[C@H](O)[C@H]3O)c(O)cc2C)cc1F [Compound 177] |  |  | 13 | 3.1 | inhibition at 0.3 µM (human SGLT1; [1]): 79.6%; inhibition at 0.3 µM (human SGLT2; [2]): 87.8% |
| CCc1cc(O)c([C@@H]2O[C@H](CO)C(F)(F)[C@H](O)[C@H]2O)cc1Cc1cc2ccccc2s1 [Compound 26, (2S,3R,4R,6R)-2-[5-(benzothiophen-2-ylmethyl)-4-ethyl-2-hydroxy-phenyl]-5,5-difluoro-6-(hydroxymethyl)tetrahydropyran-3,4-diol] |  |  | 44 | 32.9 |  |
| COc1ccc(Cc2cc([C@@H]3O[C@H](CO)C(F)(F)[C@H](O)[C@H]3O)c(OC)cc2Cl)cc1 [Compound 87] | 8.4 | 76.0 |  |  |  |
| OC[C@H]1O[C@@H](c2cc(Cc3ccc(OCF)cc3)c(Cl)cc2O)[C@H](O)[C@@H](O)C1(F)F [Compound 125] | 32.9 | 90.2 |  |  |  |
| COCCOc1cc(C)c(Cc2cc3ccccc3s2)cc1[C@@H]1O[C@H](CO)C(F)(F)[C@H](O)[C@H]1O [Compound 39] | 31.8 | 76.4 |  |  |  |
| C[C@]1(F)[C@H](O)[C@@H](O)[C@H](c2cc3c(c(Cc4ccc5c(c4)OCCO5)c2)OCC3)O[C@@H]1CO [Compound 19] |  |  |  |  | SGLT1 % Inh @ 0.3 μM (human SGLT1; [5]): 9.3%; SGLT2 % Inh @ 0.3 μM (human SGLT2; 0.3 μM, CHO-K1 cells expressing human SGLT2): 73.5% |
| COc1cc(OC)c([C@@H]2O[C@H](CO)C(F)(F)[C@H](O)[C@H]2O)cc1Cc1ccc(OCF)cc1 [Compound 147] | 26.5 | 64.7 |  |  |  |
| Cc1cc(O)c([C@@H]2O[C@H](CO)[C@@](C)(F)[C@H](O)[C@H]2O)cc1Cc1cc2ccccc2s1 [Compound 1] |  |  |  |  | inhibition at 0.3 µM (human SGLT1; [5]): 57.6%; IC50 (human SGLT1; CHO-K1 cells expressing human SGLT1, 14C-AMG uptake): 198 nM; IC50 (human SGLT2; CHO-K1 cells expressing human SGLT2, 14C-AMG uptake): 19.6 nM |
| CCc1ccc(Cc2cc([C@@H]3O[C@H](CO)C(F)(F)[C@H](O)[C@H]3O)c(O)cc2CC)cc1 [Compound 128] |  |  | 120 | 7.7 | inhibition at 0.3 µM (human SGLT1; [1]): 79.5%; inhibition at 0.3 µM (human SGLT2; [2]): 88.7% |
| Cc1cc(O)c([C@@H]2O[C@H](CO)C(F)(F)[C@H](O)[C@H]2O)cc1Cc1ccc2c(c1)OCCO2 [Compound 56, (2S,3R,4R,6R)-2-(5-((2,3-dihydrobenzo[b][1,4]dioxin-6-yl)methyl)-2-hydroxy-4-methylphenyl)-5,5-difluoro-6-(hydroxymethyl)tetrahydro-2H-pyran-3,4-diol] |  |  | 65 | 2 | inhibition at 0.3 µM (human SGLT1; [1]): 78.3%; inhibition at 0.3 µM (human SGLT2; [2]): 93% |
| COc1c([C@@H]2O[C@H](CO)C(F)(F)[C@H](O)[C@H]2O)cc(Cc2ccc(C3CC3)cc2)c2c1CCO2 [Compound 183] | 39.3 | 87.4 |  |  |  |
